From patent US7807630B2, “Targeting of Notch3 receptor function for cancer therapy” (Vanderbilt University, priority 2007, dated 2010)
Entries after “also recorded” stand apart in the source; their conditions may differ. Where no end group is shown, it is not given here.

Legend:
Jagged1 = target: T1, Jagged1 (Homo sapiens, UniProt P78504); assay: Streptavidin pull-down of peptides from Jagged1-HA transfected HEK cells, anti-HA immunoblot; format: binding; settings: HEK cells transfected with Jagged1-HA, anti-HA blot
T1 construct: expressed in transfected cells; host or cells: HEK cells
Description: FIG. 15. […] HEK cells were transfected with Jagged1-HA and treated with Notch3 peptides. The peptides were then immunoprecipitated from cell lysate with streptavidin beads and immunoblotted with anti-HA antibody. No: no input; C: control peptide. Sequences N16: CFNTLGGHS, N17: CVCVNGWTGES, N102: CATAV, N103: CFHGAT, N132: CLNGGS.
(§1) Each of 155 different peptides were assayed in quadruplicate, and only those peptides that produced a significant increase of fluorescence signal in all 4 wells were considered potentially positive or capable of inducing apoptosis. The bar graphs here reflect fluorescence counts. […] The peptides were then immunoprecipitated from cell lysate with streptavidin beads and immunoblotted with anti-HA antibody.

HCC2429 = assay: Apoptosis by annexin V labelling and flow cytometry after Notch3 peptide treatment; format: cell-based, human; settings: HCC2429, compared to control
Description: (FIG. 14A) HCC2429 was treated with Notch3 peptides N16, N17, N102, N103, N132. […] MRK003-treated cell is used as positive control. After treatment, cells were labeled with annexin V and detected using flow cytometry. […] MRK003-treated cells were used as positive control. Sequences N16: CFNTLGGHS, N17: CVCVNGWTGES, N102: CATAV, N103: CFHGAT, N132: CLNGGS. […]

[1] = tested on: Notch3-dependent gene Hey1; assay: Hey1 transcription by real-time RT-PCR after peptide treatment; format: cell-based, human
HCC2429 cells [2] = assay: Sensitivity to the EGFR tyrosine kinase inhibitor AG1478 with and without Notch3 inhibition (DN construct); format: cell-based, human
From the text: (§2) FIGS. 11A-B. Notch3 modulates the EGF pathway and increases sensitivity to an EGFr inhibitor. (FIG. 11A) In HCC2429, inhibition of the Notch3 pathway increases sensitivity to AG1478 nearly 40-fold. […] (FIG. 11B) A similar observation is made in H460 when the inventors combine AG1478 with L-685,458, a γ-secretase inhibitor, further supporting the hypothesis that EGF cooperates with the Notch pathway in oncogenesis.
(§3) EGFr Inhibitors Enhance the Anti-proliferation Effect of Notch3 Inhibition. […] Based on existing literature and their observations, the inventors hypothesized that Notch3 acts synergistically with the EGFR pathway in the promotion and the survival of lung cancer cells and that combining inhibitors of both pathways will have synergistic therapeutic value. To test this hypothesis, the inventors examined whether inhibiting the Notch3 pathway increases tumor inhibition when lung cancer cells are treated with an EGFR tyrosine kinase inhibitor, AG1478. […] Synergism can also be observed when the γ-secretase inhibitor L-685,458 is added to AG1478 (FIG. 11B). […] From a therapeutic standpoint, Notch3 is a good target for therapeutic intervention both alone and in combination with growth factor receptor inhibitors.

H460 = assay: Sensitivity to AG1478 with and without Notch3 inhibition (DN construct or γ-secretase inhibitor); format: cell-based, human
From the text: as §2, §3

[3] = Peptide screen for apoptosis by Annexin V staining using an FMAT system; format: cell-based; settings: FMAT screen of 155 peptides, quadruplicate
Description: FIG. 13. […] Each of 155 different peptides were assayed in quadruplicate, and only those peptides that produced a significant increase of fluorescence signal in all 4 wells were considered potentially positive or capable of inducing apoptosis. The bar graphs here reflect fluorescence counts. Sequences N102: CATAV, N103: CFHGAT, N105: CVSNP, N132: CLNGGS.
as §1

[4] = Apoptosis (percentage of annexin V positive cells) after Fc-fusion protein treatment; format: cell-based; settings: 40 hrs treatment, compared to control and Fc control
Description: […] […] Apoptosis was determined by percentage of annexin V positive cells. Sequences N16: CFNTLGGHS, N17: CVCVNGWTGES, N132: CLNGGS.

HCC2429 xenografts = assay: MRK003 treatment of subcutaneous HCC2429 xenografts; format: in vivo, mice
Description: (FIG. 8A) Xenografts injected with HCC2429 were treated with MRK003 once the tumors became palpable. After 2 weeks of treatment, the inventors observed about a 50% reduction in tumor size. […] Histological examination of resected tumors from xenografts at the end of treatment.
To assess the effect of pharmacologically inhibiting Notch activation in vivo, the inventors treated subcutaneous xenografts with MRK003, a γ-secretase inhibitor from Merck, Inc. & Co. Based on the manufacturer's recommended dose, the mice were treated with 100 mg/kg orally for 3 consecutives days per week once the tumors were palpable. At the end of a 2-week treatment, the animals were then euthanized, and the tumors were harvested.

HCC2429 cells [5] = assay: Cell survival with MRK003 in HCC2429 clones expressing Notch3 siRNA; format: cell-based, human; settings: HCC2429 clones with loss of Notch3 (siRNA-N3)
Description: HCC2429 cells are sensitive to GSI, and the sensitivity increases in low serum, similarly to that observed with clones expressing the DN construct. Tumor cells treated with DMSO alone had no change in cell viability. (FIG. 7B) Inhibition of S3 proteolytic processing results in the decrease of Notch3 intracellular domain (N3ICD) and accumulation of S2 product (N3ΔE) after 3 hours. (FIG. 7C) In this experiment, HCC2429 was stably transfected with plasmid vector expressing Notch3 siRNA.
A γ-Secretase Inhibitor Reduces Proliferation in Lung Cancer Cells. Proteolytic processing of Notch receptors is required for activation. As previously described, three proteolytic cleavage sites are involved in enabling Notch signaling. In the final step, the membrane-associated Notch fragment is cleaved within its transmembrane domain by a γ-secretase-containing protein complex. Mammalian presenilins (PS-1 and PS-2) are polytopic transmembrane proteins that appear to function as aspartyl proteases within a multiprotein, γ-secretase complex (Wolfe and Kopan, 2004). Presenilins provide the active site of the proteolytic activity. This last cleavage releases the Notch intracellular domain, initiating CBF-1-mediated signaling. […]

[6] = tested on: HCC2429 lung cancer cell line; assay: Soft-agar colony assay, MRK003 with AG1478; format: cell-based, human
From the text: FIGS. 12A-B. In HCC2429 lung cancer cell line, Notch inhibitor MRK003 enhances the effect of EGFR inhibitor AG1478 on colony formation in soft agar. […] (FIG. 12B) Graph depicts the quantitative decrease in colony formation.
as §3

T1 sequence (P78504 34-1218, species assumed): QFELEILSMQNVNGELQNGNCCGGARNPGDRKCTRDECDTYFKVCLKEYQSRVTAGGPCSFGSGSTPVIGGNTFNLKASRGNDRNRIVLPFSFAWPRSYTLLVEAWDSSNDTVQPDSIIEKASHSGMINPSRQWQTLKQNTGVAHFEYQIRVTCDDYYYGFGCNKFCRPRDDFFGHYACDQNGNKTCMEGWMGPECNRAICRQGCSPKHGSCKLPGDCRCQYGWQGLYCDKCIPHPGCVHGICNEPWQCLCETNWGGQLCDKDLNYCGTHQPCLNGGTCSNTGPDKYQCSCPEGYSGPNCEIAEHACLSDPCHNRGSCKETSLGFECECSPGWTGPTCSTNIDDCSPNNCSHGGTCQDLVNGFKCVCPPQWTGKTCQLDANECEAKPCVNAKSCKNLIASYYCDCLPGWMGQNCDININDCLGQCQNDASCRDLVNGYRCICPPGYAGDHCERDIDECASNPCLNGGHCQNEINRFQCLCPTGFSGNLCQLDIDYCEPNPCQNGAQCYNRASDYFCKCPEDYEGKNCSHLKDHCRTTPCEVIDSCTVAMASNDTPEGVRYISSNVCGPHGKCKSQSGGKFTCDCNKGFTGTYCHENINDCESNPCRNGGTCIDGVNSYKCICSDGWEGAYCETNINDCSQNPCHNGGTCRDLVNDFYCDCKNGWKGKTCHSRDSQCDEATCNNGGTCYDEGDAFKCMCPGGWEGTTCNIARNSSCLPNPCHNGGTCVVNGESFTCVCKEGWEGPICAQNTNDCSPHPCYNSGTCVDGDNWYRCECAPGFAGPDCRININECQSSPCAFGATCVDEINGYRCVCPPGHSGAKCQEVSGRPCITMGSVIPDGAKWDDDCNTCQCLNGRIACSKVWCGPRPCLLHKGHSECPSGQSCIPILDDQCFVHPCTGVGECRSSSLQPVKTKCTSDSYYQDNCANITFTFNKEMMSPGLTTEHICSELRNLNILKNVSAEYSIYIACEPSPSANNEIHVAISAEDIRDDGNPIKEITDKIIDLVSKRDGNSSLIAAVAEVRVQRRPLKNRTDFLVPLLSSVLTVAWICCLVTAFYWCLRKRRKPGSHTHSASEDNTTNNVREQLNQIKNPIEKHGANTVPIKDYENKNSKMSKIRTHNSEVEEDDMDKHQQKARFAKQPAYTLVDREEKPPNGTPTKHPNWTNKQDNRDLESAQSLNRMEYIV

| binding to ligand Jagged1 (Jagged1) | Compound | apoptosis (annexin V, flow cytometry) (HCC2429) | transcription of Notch3-dependent gene Hey1 [1] | apoptosis by Annexin V staining (fluorescence counts) [3] | also measured |
| --- | --- | --- | --- | --- | --- |
| binding to ligand Jagged1 | CFNTLGGHS [N16, Notch3 peptide] | Induction of apoptosis | reduced transcription of Notch3-dependent gene Hey1 |  |  |
|  | COc1cc2ncnc(Nc3cccc(Cl)c3)c2cc1OC [AG1478] |  |  |  | increase in sensitivity to AG1478 upon inhibition of the Notch3 pathway (HCC2429 cells [2]; HCC2429, DN construct versus control): 40 fold; IC50 (HCC2429 cells [2]; HCC2429, EGF-supplemented media, without Notch3 inhibition): 8.3 µM; IC50 (HCC2429 cells [2]; HCC2429 clones transfected with the DN (dominant-negative Notch3) construct, EGF-supplemented media): 0.2 µM; IC50 (H460; H460, without Notch3 inhibition): 23.8 µM; reduction of cancer cell survival upon inhibition of the Notch3 pathway (H460; H460 treated with AG1478): approximately two-fold; IC50 (H460; H460 with inhibition of the Notch3 pathway): 12.1 µM |
| binding to ligand Jagged1 | CFHGAT [N103, Notch3 peptide] | Induction of apoptosis | reduced transcription of Notch3-dependent gene Hey1 | induce apoptosis |  |
| binding to ligand Jagged1 | CLNGGS [N132, Notch3 peptide] | Induction of apoptosis | reduced transcription of Notch3-dependent gene Hey1 | induce apoptosis |  |
|  | N16-17-Fc: Purified recombinant Fc-fusion Notch3 protein with N16-17 sequences (CFNTLGGHSCVCVNGWTGES; cysteine pairing not given here; also: Fc fusion (dimerising Fc left off)) |  |  |  | apoptosis (percentage of annexin V positive cells) [4]: induces apoptosis |
|  | CC(C)C[C@H](NC(=O)[C@H](Cc1ccccc1)C[C@@H](O)[C@H](Cc1ccccc1)NC(=O)OC(C)(C)C)C(=O)N[C@@H](Cc1ccccc1)C(N)=O [L-685,458] |  |  |  | combined effect of L-685,458 added to AG1478 (H460; H460 (FIG. 11B)): Synergism |
| binding to ligand Jagged1 | CATAV [N102, Notch3 peptide] | Induction of apoptosis | reduced transcription of Notch3-dependent gene Hey1 | induce apoptosis |  |
| binding to ligand Jagged1 | CVCVNGWTGES [N17, Notch3 peptide] | Induction of apoptosis; also recorded: highest apoptotic activity | reduced transcription of Notch3-dependent gene Hey1; also recorded: best reduction in Hey1 transcription |  |  |
|  | O=S1(=O)N[C@@]2(CN1CC(F)(F)F)[C@@H]1CC[C@H]2Cc2ccc(/C=C/CN3CCC(C(F)(F)F)CC3)cc2C1 [MRK003] |  |  |  | tumor size (HCC2429 xenografts; 100 mg/kg orally, 3 consecutive days per week, end of 2-week treatment): reduction of tumor size; reduction in tumor size (HCC2429 xenografts; HCC2429 xenografts, 100 mg/kg orally, 3 consecutive days per week, after 2 weeks of treatment): ~50%; histological examination of resected tumors (HCC2429 xenografts; end of treatment, compared to control): Marked necrosis; activated Notch3 (N3ICD) in tumor (HCC2429 xenografts; xenograft tumors treated with MRK003): reduction in activated Notch3 (N3ICD); also recorded: Loss of activated Notch3 (N3ICD); cell survival when treated with MRK003 (HCC2429 cells [5]): no loss in cell survival; colony formation in soft agar ([6]; HCC2429, MRK003 alone): decreases colony formation; colony formation in soft agar, combination with EGFR inhibitor AG1478 ([6]; HCC2429, MRK003 combined with AG1478): additive effects; also recorded: enhances the effect of AG1478 on growth |
|  | CVSNP [N105, Notch3 peptide] |  |  | induce apoptosis |  |
